Experimental data: ChEMBL document CHEMBL6087400, “Synthesis and Biological Evaluation of New Chalcogen Semicarbazone (S, Se) and Their Azole Derivatives against Chagas Disease” (J Med Chem, 2024)
Activity calls are given as the source filed them. No cut-off for these calls is given here.

How the values were obtained:
[1] = Selectivity index, ratio of CC50 for mouse C2C12 cells to EC50 for Trypanosoma cruzi CAI/72 intracellular amastigotes; format: toxicity, cell-based; conditions: read-out: Selectivity Index
[2] = target: Cruzipain (Trypanosoma cruzi) (UniProt P25779); experiment: Inhibition of Trypanosoma cruzi cruzain using Z-FR-AMC as substrate measured after 10 mins relative to control
Trypanosoma cruzi = experiment: Anti-trypanosomal activity against Trypanosoma cruzi CAI/72 infected in mouse C2C12 cells at 10 uM incubated for 48 hrs relative to control; format: functional
C2C12 [3] = experiment: Cytotoxicity against mouse C2C12 cells assessed as reduction in cell viability at 10 uM incubated for 72 hrs by DAPI staining based microscopic analysis relative to control; format: toxicity; conditions: c2c12, 72 h
C2C12 [4] = experiment: Cytotoxicity against mouse C2C12 cells assessed as reduction in cell viability at 40 uM incubated for 72 hrs by DAPI staining based microscopic analysis relative to control; format: toxicity; conditions: c2c12, 72 h
[5] = Antioxidant activity assessed as inhibition of DPPH radical scavenging activity at 0.015 mg/ml measured after 2 hrs by absorbance based analysis relative to control; format: functional; parameters: scale not given: the % may be the effect or the level left
[6] = Antioxidant activity assessed as inhibition of DPPH radical scavenging activity at 0.06 mg/ml measured after 2 hrs by absorbance based analysis relative to control; format: functional; parameters: scale not given: the % may be the effect or the level left
[7] = Antioxidant activity assessed as inhibition of DPPH radical scavenging activity at 0.03 mg/ml measured after 2 hrs by absorbance based analysis relative to control; format: functional; parameters: scale not given: the % may be the effect or the level left
[8] = Half life in female Balb/c mouse at 50 mg/kg, po by mass spectrometry; format: ADME, organism-based; conditions: in vivo
C2C12 [9] = experiment: Cytotoxicity against mouse C2C12 cells assessed as reduction in cell viability at 3 uM incubated for 72 hrs by DAPI staining based microscopic analysis relative to control; format: toxicity; conditions: c2c12, 72 h

Chain of Cruzipain (Trypanosoma cruzi) (P25779 123-467 limits assumed): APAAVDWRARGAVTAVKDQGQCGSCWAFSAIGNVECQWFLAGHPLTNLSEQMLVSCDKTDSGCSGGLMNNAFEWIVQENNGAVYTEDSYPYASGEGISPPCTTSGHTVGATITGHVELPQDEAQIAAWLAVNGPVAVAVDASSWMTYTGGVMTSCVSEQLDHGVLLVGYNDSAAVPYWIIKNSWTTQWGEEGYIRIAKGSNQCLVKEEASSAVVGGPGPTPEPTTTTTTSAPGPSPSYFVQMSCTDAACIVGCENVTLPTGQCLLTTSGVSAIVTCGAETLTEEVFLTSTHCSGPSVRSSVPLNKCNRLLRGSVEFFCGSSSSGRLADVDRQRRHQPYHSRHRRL

| Compound | selectivity ratio [1] | inhibition [2] | Activity (Trypanosoma cruzi) | other results |
| --- | --- | --- | --- | --- |
| C/C(=N\Nc1nc(C)c[se]1)c1ccsc1 | > 2.68 | inactive |  |  |
| C/C(=N\NC(N)=S)c1ccc(C#N)cc1 |  | 98.8% | 31.58% | Activity (C2C12 [3]): > 100% |
| C/C(=N\Nc1nc(C)c[se]1)C12CC3CC(CC(C3)C1)C2 |  | inactive |  |  |
| C/C(=N\Nc1nc(C)cs1)c1ccc(C(F)(F)F)cc1 |  |  | inactive |  |
| O=C(Cn1ccnc1[N+](=O)[O-])NCc1ccccc1 [BENZNIDAZOLE] | > 6.91 |  |  | Activity (C2C12 [4]): > 100% |
| C/C(Cc1cccc(Cl)c1)=N\NC(N)=S | > 3.42 |  |  |  |
| C/C(=N\NC(N)=S)c1ccsc1 |  | 62.8% | 10.89% | Activity (C2C12 [3]): > 100% |
| C/C(=N\NC(N)=S)c1cccc(Cl)c1 | ~1 |  |  |  |
| C/C(=N\Nc1nc(C)cs1)c1ccc([N+](=O)[O-])cc1 |  |  | inactive |  |
| C/C(=N\NC(N)=S)C12CC3C[C@H](C1)C[C@H](C3)C2 |  |  | 38.73% | Activity (C2C12 [3]): > 100% |
| O=C1O[C@H]([C@@H](O)CO)C(O)=C1O |  |  |  | Activity [5]: 65.3%; Activity [6]: 80.3%; Activity [7]: 80.3% |
| COc1cccc(/C(C)=N/Nc2nc(C)c[se]2)c1 | > 3.75 |  |  |  |
| C/C(=N\NC(N)=[Se])c1ccc(F)c(F)c1 |  |  | inactive |  |
| C/C(=N\Nc1nc(C)c[se]1)c1cccc(Cl)c1 | > 19 |  |  |  |
| COc1ccc(/C(C)=N/NC(N)=[Se])c(OC)c1 |  |  | inactive |  |
| C/C(=N\NC(N)=[Se])c1ccc(Br)cc1 | > 13 |  |  |  |
| C/C(=N\Nc1nc(C)c[se]1)c1cccc([N+](=O)[O-])c1.Cl | > 32.5 |  |  | half-life [8]: 60 min; Activity [5]: 77.3%; Activity [6]: 78.3%; Activity [7]: 78% |
| CN1CCN(C(=O)N[C@@H](Cc2ccccc2)C(=O)N[C@H](/C=C/S(=O)(=O)c2ccccc2)CCc2ccccc2)CC1 [K-777] |  |  |  | Activity (C2C12 [9]): > 100% |
| COc1ccc(/C(C)=N/Nc2nc(C)c[se]2)c(OC)c1 |  | inactive |  |  |
| C/C(=N\NC(N)=S)[C@]12CC3C[C@@H](C[C@H](C3)C1)C2 |  | 5.06% |  |  |
